This note sets out measurements from patent US20250066356A1, “LRRK2 INHIBITORS” (INTERLINE THERAPEUTICS, INC., priority 2022, published 2025).

The target of experiment [1] is T1, phosphorylation at Ser935 on wild type LRRK2 overexpressed in recombinant HEK-293T cells (Homo sapiens, UniProt Q5S007).
T1 construct: host or cells: HEK293T, transient transfection
In words: pS935 LRRK2 Cell Assay (HTRF). It is filed as cell-based. The settings on record: LRRK2 inhibition; pS935 LRRK2 in transfected HEK293T cells, 2 hours compound incubation. The text has this: The following protocol describes an in-vitro method for measuring phosphorylation at Ser935 on wild type LRRK2 overexpressed in recombinant HEK-293T cells. The method is based on HTRF technology, which combines Fluorescence Resonance Energy Transfer (FRET) with Time-Resolved measurement (TR). Phospho-LRRK2 (Ser935) is detected in a sandwich assay format using two different specific antibodies, one labelled with Eu^3+-Cryptate (donor) and the second with d2 (acceptor). When the fluorophores are in close proximity, excitation of the donor with a light source (flash lamp) stimulates FRET to the acceptor, which in turn fluoresces at a specific wavelength (665 nm). The fluorescence emission at 615 nm from the donor is also measured to allow ratiometric reduction of data. The specific signal is proportional to phospho-LRRK2 (Ser935).
Plasmid transient transfection: DMEM medium, FBS, DPBS, Trans-IT, OPTI-MEM reagents were allowed to warm to room temperature. HEK293T cells were cultured in DMEM+10% FBS complete medium in T150 flasks till around 80% confluency before transfection. Then cells were washed with 10 mL PBS and detached with 3 mL 0.25% typinsin. 30×10E6 HEK293T cells were seeded in DMEM+10% FBS complete medium to a 15 cm dish.
DNA, TransIT-LT1, OPTI-MEM complex were prepared: […] OPTI-MEM was added to a 15 mL cone tube, then […] plasmid was added to OPTI-MEM and mixed, followed by addition of 60 L TransIT-LT1 to the plasmid OPTI-MEM mixture and mixing. The resulting mixture was incubated for 15 minutes.
The above plasmid, DNA and OPTI-MEM mixture was added dropwise to the 15 cm dish, ensuring the drops were evenly distributed. The culture dish was gently rocked back and forth and from left to right to evenly distribute the complex. The transfected dish was incubated for 24 hours at 37° C., and 5% CO2.
Transfected HEK293T was collected in the 15 cm dish. Media was aspirated from tissue culture dish, and washed by dispensing 10 mL 1×DPBS into 15 cm dish. 1×DPBS was aspirated and 3 mL trypsin was dispensed to 15 cm dish. The dish was incubated with trypsin at room temperature for 3 min until the cells were detached. 10 mL of DMEM+10% FBS medium were added to 15 cm dish and triturated to ensure homogenous cell suspensions.
Homogenous cell suspensions were transferred to a 50 mL tube, and centrifuged for 5 minutes at 1,000 rmp/min. The supernatant was aspirated and resuspended with 20 mL complete medium. 1 mL of cell suspension was transferred for cell counting. The cell suspension was diluted to 2×10E5 cells/ml. 50 L cell suspensions were added to a 384-well plate. The plate was quick spun at 800 rpm for 1 minute, then incubate overnight at 37° C., 5% CO2.
Compound dispensing: compound was diluted (10 mM DMSO stock solution) and added to assay plate (top concentration: 10 μM, 3 fold serial dilution, 9 doses) with duplicates by Tecan liquid handler. The DMSO concentration of each well was normalized to 0.2%. Plates were quick spun at 1,000 rpm for 1 minute. Plates were incubated at 37° C., 5% CO2 for 2 hours.
1× lysis buffer solution supplemented with blocking reagent was prepared (e.g. 1 mL lysis buffer 4×+3 mL water+40 L stock blocking reagent 100×). Antibodies working solution was prepared by diluting 40-fold d2 and Cryptate antibodies with detection buffer (e.g. 1520 L detection buffer+40 L d2-antibody stock solution+[…] Cryptate-antibody stock solution).
After 2 hours incubation, cell plates were taken out from the incubator. Medium was removed by plate washer, then 16 µL of supplemented lysis buffer was added 1× to each well and incubated for 30 minutes at room temperature under shaking (800 rpm/min). 4 µL of antibodies working solution was added to each well, covered with a top seal and incubated overnight in 23° C. incubator.
HTRF signal was read (665 nm and 615 nm) on Wallac 2104 EnVision® multilabel reader. Data were analyzed by XL fit software.

A further experiment deals with LRRK2 wild type enzyme (Homo sapiens, UniProt Q5S007). In words: LRRK2 biochemical assay (LanthaScreen TR-FRET, LRRKtide substrate). The note with it: LRRK2 inhibition; 3 nM LRRK2, 400 nM LRRKtide, 25 μM ATP, 120 min, 23° C. The protocol: 10 mM compound solution was prepared in DMSO. An 11-point, 3-fold dilution was performed, with highest concentration at 10 μM. A 10 mM compound DMSO solution was added to Labcyte LDV plate and the compound concentration of source plate was 10 mM. The 1 st compound concentration of Inter plate (Labcyte 384 well PP plate) was 4.938×10^−1 mM which was prepared by transferring 1.5 μL of 10 mM compound from source plate to 28.9 μL DMSO. The 2nd compound concentration of Inter plate was 1.829×10^−2 mM which was prepared by transferring 60 nL of 10 mM compound from source plate to 32.7 μL DMSO. The 3rd compound concentration of Inter plate was 6.774×10^−4 mM which was prepared by transferring 2.5 nL of 10 mM compound from source plate to 36.9 μL DMSO. 100 nL of reference compound was dispensed in column 1 for low control wells and 100 nL of DMSO in column 24 for high control wells. Compounds were dispensed to column 2 to 23 of assay plate and backfilled with DMSO to a total volume of 100 nL.
A 2×LRRK2 enzyme solution (final concentration 3 nM) was prepared in assay buffer (Tris-HCl pH8.0: 50 mM, MgCl2: 5 mM, EDTA: 1 mM, Brij-35: 0.01%, 2 mM DTT). A 2× substrate solution was prepared: LRRK2 tide substrate (final concentration 400 nM) and ATP (final concentration 25 μM) in assay buffer. 5 μL 2×LRRK2 enzyme solution was dispensed to each well in assay plate by Multidrop. Assay plate was spun at 1,000 rpm for 1 min and incubated for 15 min at 23° C. 5 μL 2×ATP/LRRKtide solution was dispensed to each well in assay plate by Multidrop. Assay plate was spun at 1,000 rpm for 1 min and incubated for 120 min at 23° C.
A 2× detection solution was prepared: Tb-pERM (pLRRKtide) antibody (final concentration 0.25 nM) and EDTA (final concentration 10 mM) in TR-FRET dilution buffer. 10 μL 2× detection solution was dispensed to each well in assay plate to stop kinase reaction by Multidrop. Assay plate was spun at 1,000 rpm for 1 min and incubate for 30 min at 23° C. Assay plate was then read on Envision configured for LanthaScreen® TR-FRET.
On the technique in general: Time-resolved FRET reads energy transfer from a long-lived donor to a nearby acceptor.

Sequence of LRRK2 wild type enzyme (Q5S007 whole entry): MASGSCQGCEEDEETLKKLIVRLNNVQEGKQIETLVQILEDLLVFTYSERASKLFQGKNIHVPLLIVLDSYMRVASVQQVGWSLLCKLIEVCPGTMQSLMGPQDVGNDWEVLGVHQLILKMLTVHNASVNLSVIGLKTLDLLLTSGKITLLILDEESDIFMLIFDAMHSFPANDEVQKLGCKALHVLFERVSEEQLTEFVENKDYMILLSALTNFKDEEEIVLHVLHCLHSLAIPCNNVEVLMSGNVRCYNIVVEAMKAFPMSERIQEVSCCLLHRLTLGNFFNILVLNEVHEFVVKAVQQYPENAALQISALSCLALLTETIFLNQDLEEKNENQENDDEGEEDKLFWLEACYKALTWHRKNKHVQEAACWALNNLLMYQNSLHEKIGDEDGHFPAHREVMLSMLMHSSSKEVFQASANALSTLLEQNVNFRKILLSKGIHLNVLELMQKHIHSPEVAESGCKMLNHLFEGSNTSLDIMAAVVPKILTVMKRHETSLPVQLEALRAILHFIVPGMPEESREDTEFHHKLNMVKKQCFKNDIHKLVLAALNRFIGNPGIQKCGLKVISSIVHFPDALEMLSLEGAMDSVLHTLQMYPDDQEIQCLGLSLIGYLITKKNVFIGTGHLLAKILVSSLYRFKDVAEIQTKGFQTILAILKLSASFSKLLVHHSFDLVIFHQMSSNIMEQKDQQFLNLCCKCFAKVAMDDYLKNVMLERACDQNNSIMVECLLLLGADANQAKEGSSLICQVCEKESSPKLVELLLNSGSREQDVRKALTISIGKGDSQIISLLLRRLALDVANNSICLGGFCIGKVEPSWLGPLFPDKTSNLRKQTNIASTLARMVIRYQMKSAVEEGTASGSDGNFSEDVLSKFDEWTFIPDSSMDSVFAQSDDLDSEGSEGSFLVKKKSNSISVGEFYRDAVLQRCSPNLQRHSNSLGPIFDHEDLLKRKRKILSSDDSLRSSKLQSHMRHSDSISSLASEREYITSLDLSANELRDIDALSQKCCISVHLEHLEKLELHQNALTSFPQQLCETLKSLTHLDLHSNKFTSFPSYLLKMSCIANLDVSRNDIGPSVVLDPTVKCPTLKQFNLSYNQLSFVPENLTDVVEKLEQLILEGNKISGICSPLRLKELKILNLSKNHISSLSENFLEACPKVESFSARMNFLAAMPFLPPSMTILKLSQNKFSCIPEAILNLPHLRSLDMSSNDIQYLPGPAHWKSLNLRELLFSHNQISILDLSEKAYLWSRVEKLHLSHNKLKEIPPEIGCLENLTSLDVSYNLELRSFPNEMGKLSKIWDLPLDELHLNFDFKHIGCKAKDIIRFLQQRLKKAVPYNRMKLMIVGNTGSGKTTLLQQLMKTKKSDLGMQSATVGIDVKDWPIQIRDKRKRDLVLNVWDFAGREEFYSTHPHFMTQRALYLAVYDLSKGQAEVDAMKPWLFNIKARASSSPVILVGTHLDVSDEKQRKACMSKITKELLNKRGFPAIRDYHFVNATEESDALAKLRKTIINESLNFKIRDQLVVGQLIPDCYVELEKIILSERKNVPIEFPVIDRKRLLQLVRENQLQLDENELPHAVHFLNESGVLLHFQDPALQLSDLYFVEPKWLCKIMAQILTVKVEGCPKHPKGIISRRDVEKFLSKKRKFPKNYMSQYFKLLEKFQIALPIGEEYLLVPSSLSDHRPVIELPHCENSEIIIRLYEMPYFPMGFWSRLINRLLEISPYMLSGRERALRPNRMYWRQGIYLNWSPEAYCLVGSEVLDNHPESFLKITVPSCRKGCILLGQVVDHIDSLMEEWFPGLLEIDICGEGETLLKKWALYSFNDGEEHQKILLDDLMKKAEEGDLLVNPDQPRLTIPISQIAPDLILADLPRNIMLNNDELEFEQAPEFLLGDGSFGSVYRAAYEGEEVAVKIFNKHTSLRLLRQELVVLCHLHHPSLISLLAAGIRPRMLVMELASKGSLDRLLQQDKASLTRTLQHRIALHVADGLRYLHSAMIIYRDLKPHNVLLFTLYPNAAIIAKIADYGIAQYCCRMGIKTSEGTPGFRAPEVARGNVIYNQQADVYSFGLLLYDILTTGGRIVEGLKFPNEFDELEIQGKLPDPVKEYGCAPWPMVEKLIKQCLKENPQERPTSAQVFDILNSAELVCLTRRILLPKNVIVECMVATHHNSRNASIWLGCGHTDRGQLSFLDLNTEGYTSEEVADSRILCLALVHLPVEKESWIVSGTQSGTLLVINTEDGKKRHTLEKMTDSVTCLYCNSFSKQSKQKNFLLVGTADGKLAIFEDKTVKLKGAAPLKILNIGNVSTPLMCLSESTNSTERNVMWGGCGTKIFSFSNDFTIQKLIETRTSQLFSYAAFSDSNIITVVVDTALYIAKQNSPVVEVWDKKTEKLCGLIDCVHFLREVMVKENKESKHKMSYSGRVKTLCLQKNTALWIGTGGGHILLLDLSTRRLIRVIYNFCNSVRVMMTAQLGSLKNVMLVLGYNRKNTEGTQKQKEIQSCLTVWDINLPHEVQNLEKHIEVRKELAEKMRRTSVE
T1 sequence (Q5S007 whole entry): as above

Regarding `C[C@@H]1C[C@H](n2c(Cc3noc(N4CC(O)C4)n3)nc3cnc4ccc(Cl)cc4c32)CCO1` [Compound 3, 1-[3-({8-chloro-1-[(2R,4R)-2-methyloxan-4-yl]-1H-imidazo[4,5-c]quinolin-2-yl}methyl)-1,2,4-oxadiazol-5-yl]azetidin-3-ol], the half-inhibitory concentration (IC50) (as a rule, the midpoint of a concentration-inhibition curve) in experiment [1] is 61.5 nM; on LRRK2 wild type enzyme it was 0.798 nM.

On to `C[C@@H]1C[C@H](n2c(Cn3ccc(NS(C)(=O)=O)n3)nc3cnc4ccc(C#N)cc4c32)CCO1` [Compound 4, N-(1-{[8-cyano-1-(2-methyloxan-4-yl)-1H-imidazo[4,5-c]quinolin-2-yl]methyl}-1H-pyrazol-3-yl)methanesulfonamide], for which the IC50 worked out at 458 nM in experiment [1] and 0.888 nM at LRRK2 wild type enzyme.

`C[C@@H]1C[C@H](n2c(Cc3noc(N4CCC(O)CC4)n3)nc3cnc4ccc(C#N)cc4c32)CCO1` [Compound 11, 2-{[5-(4-hydroxypiperidin-1-yl)-1,2,4-oxadiazol-3-yl]methyl}-1-[(2R,4R)-2-methyloxan-4-yl]-1H-imidazo[4,5-c]quinoline-8-carbonitrile]: the IC50 in experiment [1] was 270 nM; at LRRK2 wild type enzyme, 2.26 nM.

In the case of `C[C@@H]1C[C@H](n2c(Cc3cn([C@H]4C[C@@H](S(C)(=O)=O)C4)nn3)nc3cnc4ccc(C#N)cc4c32)CCO1` [Compound 21], the IC50 was 1770 nM in experiment [1] and 1.41 nM on LRRK2 wild type enzyme.

Turning to `C[C@@H]1C[C@H](n2c(Cc3noc(C4(S(C)(=O)=O)CC4)n3)nc3cnc4ccc(Cl)cc4c32)CCO1` [Compound 10, 3-({8-chloro-1-[(2R,4R)-2-methyloxan-4-yl]-1H-imidazo[4,5-c]quinolin-2-yl}methyl)-5-(1-methanesulfonylcyclopropyl)-1,2,4-oxadiazole], the figures for the IC50 (in experiment [1]; at LRRK2 wild type enzyme) were 10.3 nM and 0.299 nM, respectively.

As to `C[C@@H]1C[C@H](n2c(Cc3noc(N4CC(O)C4)n3)nc3cnc4ccc(C#N)cc4c32)CCO1` [Compound 1, 2-{[5-(3-hydroxyazetidin-1-yl)-1,2,4-oxadiazol-3-yl]methyl}-1-[(2R,4R)-2-methyloxan-4-yl]-1H-imidazo[4,5-c]quinoline-8-carbonitrile], the IC50 in experiment [1] was determined as 664 nM; on LRRK2 wild type enzyme, 0.976 nM.

With `C[C@@H]1C[C@H](n2c(Cc3cnn(C4COC4)c3)nc3cnc4ccc(C#N)cc4c32)CCO1` [Compound 8, 1-[(2R,4R)-2-methyloxan-4-yl]-2-{[1-(oxetan-3-yl)-1H-pyrazol-4-yl]methyl}-1H-imidazo[4,5-c]quinoline-8-carbonitrile], the IC50 was found to be 618 nM in experiment [1] and 6.47 nM at LRRK2 wild type enzyme.
